In one assay the target is T1, AXL kinase (Homo sapiens, UniProt P30530).
T1 construct: purchased Carna 08-107
T1 sequence (P30530 473-894 limits assumed): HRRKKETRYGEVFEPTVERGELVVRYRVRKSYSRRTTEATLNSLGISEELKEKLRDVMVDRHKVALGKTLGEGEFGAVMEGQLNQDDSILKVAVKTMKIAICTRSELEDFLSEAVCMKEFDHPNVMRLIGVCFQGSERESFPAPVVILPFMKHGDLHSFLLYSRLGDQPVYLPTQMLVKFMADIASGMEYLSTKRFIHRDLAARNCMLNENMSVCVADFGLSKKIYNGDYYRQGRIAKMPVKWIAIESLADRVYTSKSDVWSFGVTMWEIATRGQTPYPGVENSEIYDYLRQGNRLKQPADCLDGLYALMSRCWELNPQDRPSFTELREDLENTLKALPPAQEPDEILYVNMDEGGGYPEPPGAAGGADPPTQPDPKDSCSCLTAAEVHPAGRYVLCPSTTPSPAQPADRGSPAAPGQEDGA
Nature of the assay: Inhibitory activity of compound against AXL kinase (HTRF KinEASE). The format is biochemical. Conditions: AXL enzyme (Carna, 08-107), ATP 15 μM; "<" means below detection limit of the test. In short, it runs like this: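 AXL enzyme (final 0.016 ng/uL) was preincubated with compound (8 concentrations from 1 μM, ½ log steps) for 15 min at room temperature, then reacted with TK Substrate 3-biotin (final 1) and ATP (final 15 μM) for 45 min at 25° C. Phosphorylation was read by HTRF (TK antibody-cryptate, streptavidin-XL665, 1 h); IC50 from variable-slope dose-response fit.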
Background: TR-FRET usually uses a lanthanide donor and a delayed reading to cut background.

The subject of assay [1] is MV-4-11 (human myeloid monocytic leukemia cell line). Nature of the assay: Proliferation inhibition activity of compounds to MV-4-11 cells (CellTiter-Glo). Conditions: MV4-11 cells, 72 h dosing. Format: cell-based. As for the experimental part:
MV-4-11 (human myeloid monocytic leukemia cell line, culture medium: JIMDM+10% fetal bovine serum) is purchased from Cobioer Biosciences Co., Ltd and cultured in a 5% C02 incubator at 37° C. The cells in a logarithmic growth phase are plated in a 96-well plate at cell densities of 8000 cells/well, 6000 cells/well, 2000 cells/well, 2000 cells/well and 3000 cells/well, and a blank control group is set at the same time.
A compound to be tested and the positive drug are dissolved in dimethyl sulfoxide to prepare a 10 mM stock solution, which is then stored in −80° C. refrigerator for long-time storage. After the cells are plated for 24 h, the 10 mM compound stock solution is diluted with dimethyl sulfoxide to obtain a working solution having a 200-fold concentration (the highest concentration is 200 or 2000 μM, a 3-fold gradient, a total of 10 concentrations), and 3 μL of the working solution of each concentration is added to 197 μL of complete medium, and diluted into a working solution of 3-fold concentration. 50 μL of the working solution is then taken and added to a 100 μL cell culture medium (a final concentration of dimethyl sulfoxide is 0.5%, v/v), and two complex holes are set for each concentration. After 72 h of dosing treatment, 50 μl of CellTiter-Glo® (purchased from Promega) is added to each well. Fluorescence signals are measured on Envision (PerkinElmer) according to an operating procedure of the specification. GraphPad Prism 5 software log(inhibitor) vs. response-Variable slope is used to fit a dose-response curve, so as to obtain the IC50 value of the compound to the inhibition of cell-proliferation. The calculation formulation of the inhibition rate is as follows: […]
wherein: signal value of subject: a mean fluorescence signal of cell+medium+compound group; signal value of blank group: a mean fluorescence signal of medium group (containing 0.5% DMSO); signal value of negative control group: a mean fluorescence signal of cell+medium group (containing 0.5% DMSO).
In general terms: In ATP-based viability assays light output follows the ATP content of the culture.

Data on 19 compounds can be found in US20230227484A1, “PYRIMIDINE COMPOUND AS AXL INHIBITOR” (NANJING CHIA TAI TIANQING PHARMACEUTICAL CO., LTD., priority 2020, published 2023).

What is called IC50 is the concentration at which inhibition is half-maximal. A higher IC50 goes with lower potency.

As for `CNC(=O)c1ccccc1Nc1nc(Nc2ccc3c(c2)CCN(C2CCOCC2)CC3)ncc1Cl` [Example 31, 2-((5-chloro-2-((3-(tetrahydro-2H-pyran-4-yl)-2,3,4,5-tetrahydro-1H-benzo[d]aza-7-yl)amino)pyrimidin-4-yl)amino)-N-methylbenzamide], the IC50 on AXL kinase was determined as 0.8 nM; in assay [1] it was 1.46 nM. Take `O=S(=O)(NC1CC1)c1ccccc1Nc1nc(Nc2ccc3c(c2)CC[C@@H](N2CCCC2)CC3)ncc1Cl` [Example 24, (S)-2-((5-chloro-2-((7-(pyrrolidin-1-yl)-6,7,8,9-tetrahydro-5H-benzo[7]annulen-2-yl)amino)pyrimidin-4-yl)amino)-N-cyclopropyl benzenesulfonamide]: the IC50 at AXL kinase is under 0.11 nM; in assay [1], 6.89 nM. The like results for `O=C(c1ccccc1Nc1nc(Nc2ccc3c(c2)CC[C@@H](N2CCCC2)CC3)ncc1Cl)N1CCCC1` [Example 6, (S)-(2-((5-chloro-2-((7-(pyrrolidin-1-yl)-6,7,8,9-tetrahydro-5H-benzo[7]annulen-2-yl)amino)pyrimidin-4-yl)amino)phenyl)(pyrrolidin-1-yl)methanone] were, in that order, under 0.11 nM and 3.38 nM. The like results for `CNC(=O)c1cc(C#N)ccc1Nc1nc(Nc2ccc3c(c2)CC[C@@H](N2CCCC2)CC3)ncc1Cl` [Example 34, (S)-2-((5-chloro-2-((7-(pyrrolidin-1-yl)-6,7,8,9-tetrahydro-5H-benzo[7]annulen-2-yl)amino)pyrimidin-4-yl)amino)-5-cyano-N-methylbenzamide] were, in that order, 1.27 nM and 6.16 nM. For the compound `CNC(=O)c1ccccc1Nc1nc(Nc2ccc3c(c2)CCN(C2CCCC2)CC3)ncc1Cl` [Example 32, 2-((5-chloro-2-((3-cyclopentyl-2,3,4,5-tetrahydro-1H-benzo(d)aza-7-yl)amino)pyrimidine-4-yl)amino)-N-methylbenzamide], the results for the half-maximal inhibitory concentration (IC50) (at AXL kinase; in assay [1]) were 0.75 nM and 1.98 nM, respectively. The corresponding values for `NC(=O)c1cc(F)ccc1Nc1nc(Nc2ccc3c(c2)CC[C@@H](N2CCCC2)CC3)ncc1Cl` [Example 16, (S)-2-((5-chloro-2-((7-(pyrrolidin-1-yl)-6,7,8,9-tetrahydro-5H-benzo[7]annulen-2-yl)amino)pyrimidin-4-yl)amino)-5-fluorobenzamide] are 0.12 nM and 0.97 nM.

Regarding `Clc1cnc(Nc2ccc3c(c2)CC[C@@H](N2CCCC2)CC3)nc1Nc1ccccc1CN1CCOCC1` [Example 40, (S)-5-chloro-N^4-(2-(morpholinmethyl)phenyl)-N^2-(7-(pyrrolidin-1-yl)-6,7,8,9-tetrahydro-5H-benzo[7]annulen-2-yl)pyrimidine-2,4-diamine], the IC50 is 0.72 nM at AXL kinase and 4.93 nM in assay [1]. Regarding `CNC(=O)c1cc(OC)ccc1Nc1nc(Nc2ccc3c(c2)CC[C@@H](N2CCCC2)CC3)ncc1Cl` [Example 37, (S)-2-((5-chloro-2-(((7-(pyrrolidin-1-yl)-6,7,8,9-tetrahydro-5H-benzo[7]annulen-2-yl)amino))pyrimidin-4-yl)amino)-5-methoxyl-N-methylbenzamide], the IC50 is 0.18 nM against AXL kinase and 3.39 nM in assay [1]. The corresponding values for `Cc1c(F)ccc(Nc2nc(Nc3ccc4c(c3)CC[C@@H](N3CCCC3)CC4)ncc2Cl)c1P(C)(C)=O` [Example 135, (S)-(6-((5-chloro-2-((7-(pyrrolidin-1-yl)-6,7,8,9-tetrahydro-5H-benzo[7]annulen-2-yl)amino)pyrimidin-4-yl)amino)-3-fluoro-2-methylphenyl)dimethyl phosphine oxide] are 1.35 nM and 4.23 nM.

`Clc1cnc(Nc2ccc3c(c2)CC[C@@H](N2CCCC2)CC3)nc1Nc1ccccc1-c1ncn[nH]1` [Example 25, (S)—N^4-(2-(1H-1,2,4-triazol-5-yl)phenyl)-5-chloro-N^2-(7-(pyrrolidin-1-yl)-6,7,8,9-tetrahydro-5H-benzo[7]annulen-2-yl)pyrimidine-2,4-diamine]: the figures for the IC50 (at AXL kinase; in assay [1]) were 0.62 nM and 3.23 nM, respectively. The like results for `CNC(=O)c1cc(F)ccc1Nc1nc(Nc2ccc3c(c2)CCN(C2CCOCC2)CC3)ncc1Cl` [Example 46, 2-((5-chloro-2-((3-(tetrahydro-2H-pyran-4-yl)-2,3,4,5-tetrahydro-1H-benzo[d]aza-7-yl)amino)pyrimidin-4-yl)amino)-5-fluoro-N-methylbenzamide] were, in that order, 0.8 nM and 1.63 nM. The like results for `COc1c(F)ccc(Nc2nc(Nc3ccc4c(c3)CC[C@@H](N3CCCC3)CC4)ncc2Cl)c1P(C)(C)=O` [Example 134, (S)-(6-((5-chloro-2-((7-(pyrrolidin-1-yl)-6,7,8,9-tetrahydro-5H-benzo[7]annulen-2-yl)amino)pyrimidin-4-yl)amino)-3-fluoro-2-methoxyphenyl)dimethyl phosphine oxide] were, in that order, 0.85 nM and 3.63 nM.

For the compound `CS(=O)(=O)Nc1ccccc1Nc1nc(Nc2ccc3c(c2)CC[C@@H](N2CCCC2)CC3)ncc1Cl` [Example 30, (S)—N-(2-((5-chloro-2-((7-(pyrrolidin-1-yl)-6,7,8,9-tetrahydro-5H-benzo[7]annulen-2-yl)amino)pyrimidin-4-yl)amino)phenyl)methanesulfonamide], the 50% inhibitory concentration (IC50) on AXL kinase amounted to 1.05 nM; in assay [1], 2.64 nM.

On to `CNC(=O)c1cc(O)ccc1Nc1nc(Nc2ccc3c(c2)CC[C@@H](N2CCCC2)CC3)ncc1Cl` [Example 45, (S)-2-((5-chloro-2-((7-(pyrrolidin-1-yl)-6,7,8,9-tetrahydro-5H-benzo[7]annulen-2-yl)amino)pyrimidin-4-yl)amino)-5-hydroxyl-N-methylbenzamide], for which the IC50 on AXL kinase amounted to 0.5 nM; in assay [1], 3.48 nM. The corresponding values for `COCc1ccc(Nc2nc(Nc3ccc4c(c3)CCC(N3CC5CC3C5)CC4)ncc2Cl)c(P(C)(C)=O)c1` (single isomer, unassigned) [Example 116 Isomer 116-1, (2-((2-((7-(2-azabicyclo[2.1.1]hexan-2-yl)-6,7,8,9-tetrahydro-5H-benzo[7]annulen-2-yl)amino)-5-chloropyrimidin-4-yl)amino)-5-(methoxymethyl)phenyl)dimethyl phosphine oxide] are 4.94 nM and 10.1 nM. The corresponding values for `O=S(=O)(Nc1ccccc1Nc1nc(Nc2ccc3c(c2)CC[C@@H](N2CCCC2)CC3)ncc1Cl)C1CC1` [Example 41, (S)—N-(2-((5-chloro-2-((7-(pyrrolidin-1-yl)-6,7,8,9-tetrahydro-5H-benzo[7]annulen-2-yl)amino)pyrimidin-4-yl)amino)phenyl)cyclopropanesulfonamide] are 2.08 nM and 4.28 nM.

Take `CN1Cc2cccc(Nc3nc(Nc4ccc5c(c4)CCN(C4CCOCC4)CC5)ncc3Cl)c2C1=O` [Example 49, 7-((5-chloro-2-((3-(tetrahydro-2H-pyran-4-yl)-2,3,4,5-tetrahydro-1H-benzo[d]aza-7-yl)amino)pyrimidin-4-yl)amino)-2-methylisoindolin-1-one]: the figures for the IC50 (against AXL kinase; in assay [1]) were 9.85 nM and 8.3 nM, respectively. The corresponding values for `CP(C)(=O)c1cc(O)ccc1Nc1nc(Nc2ccc3c(c2)CC[C@@H](N2CCCC2)CC3)ncc1Cl` [Example 61, (S)-(2-((5-chloro-2-((7-(pyrrolidin-1-yl)-6,7,8,9-tetrahydro-5H-benzo[7]annulen-2-yl)amino)pyrimidin-4-yl)amino)-5-hydroxyphenyl)dimethyl phosphine oxide] are 2.38 nM and 7.1 nM. Regarding `CP(C)(=O)c1cc(-n2cnnn2)ccc1Nc1nc(Nc2ccc3c(c2)CC[C@@H](N2CCCC2)CC3)ncc1Cl` [Example 109, (S)-(2-((5-chloro-2-((7-(pyrrolidin-1-yl)-6,7,8,9-tetrahydro-5H-benzo[7]annulen-2-yl)amino)pyrimidin-4-yl)amino)-5-(1H-tetrazol-1-yl)phenyl)dimethyl phosphine oxide], in assay [1], the IC50 was found to be 8.56 nM.
